{
  "source": "ChEMBL document CHEMBL4387741",
  "about": "“Optimization of novel reversible Bruton's tyrosine kinase inhibitors identified using Tethering-fragment-based screens” (Bioorg Med Chem, 2019)",
  "key": {"[1]": {"target": "Ephrin type-A receptor 4 (Homo sapiens) (UniProt P54764)", "assay": "Inhibition of wild-type human partial length EPHA4 (T601 to R897 residues) expressed in bacterial expression system at 1 uM by Kinomescan method relative to control"}, "[2]": {"target": "Glycogen synthase kinase-3 beta (Homo sapiens) (UniProt P49841)", "assay": "Inhibition of wild-type human full length GSK3B (M1 to T433 residues) expressed in mammalian expression system at 1 uM by Kinomescan method relative to control"}, "[3]": {"target": "Interleukin-1 receptor-associated kinase 4 (Homo sapiens) (UniProt Q9NWZ3)", "sequence (Q9NWZ3 whole entry, the tested form may be a part)": "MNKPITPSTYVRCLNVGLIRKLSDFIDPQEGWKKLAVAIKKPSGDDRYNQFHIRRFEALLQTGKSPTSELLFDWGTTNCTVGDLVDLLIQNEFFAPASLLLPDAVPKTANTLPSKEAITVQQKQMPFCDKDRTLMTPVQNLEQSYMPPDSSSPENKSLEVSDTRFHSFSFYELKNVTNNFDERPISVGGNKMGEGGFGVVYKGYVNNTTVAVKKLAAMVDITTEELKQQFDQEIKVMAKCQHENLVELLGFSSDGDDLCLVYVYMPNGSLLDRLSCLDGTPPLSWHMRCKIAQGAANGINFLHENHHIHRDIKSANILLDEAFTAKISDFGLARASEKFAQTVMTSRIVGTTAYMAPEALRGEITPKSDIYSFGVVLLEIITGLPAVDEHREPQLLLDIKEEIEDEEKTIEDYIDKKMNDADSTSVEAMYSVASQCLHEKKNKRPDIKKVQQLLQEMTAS", "assay": "Inhibition of wild-type human partial length IRAK4 (M1 to S460 residues) expressed in mammalian expression system at 1 uM by Kinomescan method relative to control"}, "[4]": {"target": "Phosphorylase b kinase gamma catalytic chain, liver/testis isoform (Homo sapiens) (UniProt P15735)", "sequence (P15735 whole entry, the tested form may be a part, canonical isoform)": "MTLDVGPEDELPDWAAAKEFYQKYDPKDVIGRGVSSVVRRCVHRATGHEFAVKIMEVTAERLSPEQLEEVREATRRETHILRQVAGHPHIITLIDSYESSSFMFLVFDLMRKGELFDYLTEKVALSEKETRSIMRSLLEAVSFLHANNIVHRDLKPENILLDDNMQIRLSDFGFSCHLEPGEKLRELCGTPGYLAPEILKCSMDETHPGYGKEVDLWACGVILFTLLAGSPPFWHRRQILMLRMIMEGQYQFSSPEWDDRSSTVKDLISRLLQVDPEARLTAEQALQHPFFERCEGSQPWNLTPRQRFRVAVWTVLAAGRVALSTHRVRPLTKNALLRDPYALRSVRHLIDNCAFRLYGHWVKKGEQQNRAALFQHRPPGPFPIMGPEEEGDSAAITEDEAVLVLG", "assay": "Inhibition of wild-type human partial length PHKG2 (M1 to W300 residues) expressed in bacterial expression system at 1 uM by Kinomescan method relative to control"}, "[5]": {"system": "Phosphatidylinositol 4,5-bisphosphate 3-kinase catalytic subunit alpha isoform (Homo sapiens), P42336 [E545K]", "assay": "Inhibition of human partial length PIK3CA E545K mutant (R108 to N1068 residues) expressed in mammalian expression system at 1 uM by Kinomescan method relative to control"}, "[6]": {"target": "Phosphatidylinositol 4,5-bisphosphate 3-kinase catalytic subunit gamma isoform (Homo sapiens) (UniProt P48736)", "assay": "Inhibition of wild-type human partial length PIK3CG (S144 to A1102 residues) expressed in mammalian expression system at 1 uM by Kinomescan method relative to control"}, "[7]": {"target": "Protein kinase C theta type (Homo sapiens) (UniProt Q04759)", "sequence (Q04759 whole entry, looked up, the tested form may be a part)": "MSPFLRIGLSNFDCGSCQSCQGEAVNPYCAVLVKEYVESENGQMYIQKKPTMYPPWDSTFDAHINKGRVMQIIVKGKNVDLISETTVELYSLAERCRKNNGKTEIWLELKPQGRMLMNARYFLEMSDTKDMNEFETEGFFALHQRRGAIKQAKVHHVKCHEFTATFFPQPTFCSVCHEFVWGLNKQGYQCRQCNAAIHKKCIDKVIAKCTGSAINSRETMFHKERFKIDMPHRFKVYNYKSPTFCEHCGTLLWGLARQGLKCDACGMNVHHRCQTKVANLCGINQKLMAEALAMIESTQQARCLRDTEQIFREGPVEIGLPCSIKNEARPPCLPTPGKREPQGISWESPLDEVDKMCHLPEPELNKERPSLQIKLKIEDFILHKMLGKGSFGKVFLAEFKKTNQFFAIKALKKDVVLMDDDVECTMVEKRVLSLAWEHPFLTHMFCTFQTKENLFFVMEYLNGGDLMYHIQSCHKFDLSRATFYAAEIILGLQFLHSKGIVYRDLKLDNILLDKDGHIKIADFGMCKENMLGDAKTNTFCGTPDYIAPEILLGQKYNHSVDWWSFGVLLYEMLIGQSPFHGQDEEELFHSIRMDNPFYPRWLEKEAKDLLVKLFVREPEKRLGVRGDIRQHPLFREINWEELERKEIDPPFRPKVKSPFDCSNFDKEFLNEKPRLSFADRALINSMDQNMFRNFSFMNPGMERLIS", "assay": "Inhibition of wild-type human partial length PRKCQ (L350 to S706 residues) expressed in bacterial expression system at 1 uM by Kinomescan method relative to control"}, "[8]": {"target": "Serine/threonine-protein kinase D2 (Homo sapiens) (UniProt Q9BZL6)", "assay": "Inhibition of wild-type human partial length PRKD2 (A519 to E838 residues) expressed in bacterial expression system at 1 uM by Kinomescan method relative to control"}, "[9]": {"target": "NT-3 growth factor receptor (Homo sapiens) (UniProt Q16288)", "assay": "Inhibition of wild-type human partial length TRKC (Q531 to G825 residues) expressed in mammalian expression system at 1 uM by Kinomescan method relative to control"}, "[10]": {"system": "Tyrosine-protein kinase ABL1 (Homo sapiens), P00519 [T315I]", "assay": "Inhibition of human phosphorylated ABL1 T315I mutant (S229 to K512 residues) expressed in mammalian expression system at 10 uM by Kinomescan method relative to control"}, "[11]": {"target": "Atypical kinase COQ8A, mitochondrial (Homo sapiens) (UniProt Q8NI60)", "assay": "Inhibition of wild-type human […] ADCK3 (M280 to Q647 residues) expressed in bacterial expression system at 10 uM by Kinomescan method relative to control"}, "[12]": {"target": "5'-AMP-activated protein kinase catalytic subunit alpha-1 (Homo sapiens) (UniProt Q13131)", "assay": "Inhibition of wild-type human partial length AMPK alpha1 (M1 to E306 residues) expressed in bacterial expression system at 10 uM by Kinomescan method relative to control"}, "[13]": {"target": "Cyclin-dependent kinase 11A (Homo sapiens) (UniProt Q9UQ88)", "assay": "Inhibition of wild-type human partial length CDC2L2 (D391 to K730 residues) expressed in bacterial expression system at 10 uM by Kinomescan method relative to control"}, "[14]": {"target": "Death-associated protein kinase 3 (Homo sapiens) (UniProt O43293)", "assay": "Inhibition of wild-type human partial length DAPK3 (M1 to A277 residues) expressed in bacterial expression system at 10 uM by Kinomescan method relative to control"}, "[15]": {"target": "Dual specificity tyrosine-phosphorylation-regulated kinase 1B (Homo sapiens) (UniProt Q9Y463)", "assay": "Inhibition of wild-type human full length DYRK1B (M1 to S629 residues) expressed in bacterial expression system at 10 uM by Kinomescan method relative to control"}, "[16]": {"target": "Fibroblast growth factor receptor 4 (Homo sapiens) (UniProt P22455)", "assay": "Inhibition of wild-type human partial length FGFR4 (G402 to E713 residues) expressed in bacterial expression system at 10 uM by Kinomescan method relative to control"}, "[17]": {"target": "Mitogen-activated protein kinase kinase kinase 1 (Homo sapiens) (UniProt Q13233)", "sequence (Q13233 whole entry, the tested form may be a part)": "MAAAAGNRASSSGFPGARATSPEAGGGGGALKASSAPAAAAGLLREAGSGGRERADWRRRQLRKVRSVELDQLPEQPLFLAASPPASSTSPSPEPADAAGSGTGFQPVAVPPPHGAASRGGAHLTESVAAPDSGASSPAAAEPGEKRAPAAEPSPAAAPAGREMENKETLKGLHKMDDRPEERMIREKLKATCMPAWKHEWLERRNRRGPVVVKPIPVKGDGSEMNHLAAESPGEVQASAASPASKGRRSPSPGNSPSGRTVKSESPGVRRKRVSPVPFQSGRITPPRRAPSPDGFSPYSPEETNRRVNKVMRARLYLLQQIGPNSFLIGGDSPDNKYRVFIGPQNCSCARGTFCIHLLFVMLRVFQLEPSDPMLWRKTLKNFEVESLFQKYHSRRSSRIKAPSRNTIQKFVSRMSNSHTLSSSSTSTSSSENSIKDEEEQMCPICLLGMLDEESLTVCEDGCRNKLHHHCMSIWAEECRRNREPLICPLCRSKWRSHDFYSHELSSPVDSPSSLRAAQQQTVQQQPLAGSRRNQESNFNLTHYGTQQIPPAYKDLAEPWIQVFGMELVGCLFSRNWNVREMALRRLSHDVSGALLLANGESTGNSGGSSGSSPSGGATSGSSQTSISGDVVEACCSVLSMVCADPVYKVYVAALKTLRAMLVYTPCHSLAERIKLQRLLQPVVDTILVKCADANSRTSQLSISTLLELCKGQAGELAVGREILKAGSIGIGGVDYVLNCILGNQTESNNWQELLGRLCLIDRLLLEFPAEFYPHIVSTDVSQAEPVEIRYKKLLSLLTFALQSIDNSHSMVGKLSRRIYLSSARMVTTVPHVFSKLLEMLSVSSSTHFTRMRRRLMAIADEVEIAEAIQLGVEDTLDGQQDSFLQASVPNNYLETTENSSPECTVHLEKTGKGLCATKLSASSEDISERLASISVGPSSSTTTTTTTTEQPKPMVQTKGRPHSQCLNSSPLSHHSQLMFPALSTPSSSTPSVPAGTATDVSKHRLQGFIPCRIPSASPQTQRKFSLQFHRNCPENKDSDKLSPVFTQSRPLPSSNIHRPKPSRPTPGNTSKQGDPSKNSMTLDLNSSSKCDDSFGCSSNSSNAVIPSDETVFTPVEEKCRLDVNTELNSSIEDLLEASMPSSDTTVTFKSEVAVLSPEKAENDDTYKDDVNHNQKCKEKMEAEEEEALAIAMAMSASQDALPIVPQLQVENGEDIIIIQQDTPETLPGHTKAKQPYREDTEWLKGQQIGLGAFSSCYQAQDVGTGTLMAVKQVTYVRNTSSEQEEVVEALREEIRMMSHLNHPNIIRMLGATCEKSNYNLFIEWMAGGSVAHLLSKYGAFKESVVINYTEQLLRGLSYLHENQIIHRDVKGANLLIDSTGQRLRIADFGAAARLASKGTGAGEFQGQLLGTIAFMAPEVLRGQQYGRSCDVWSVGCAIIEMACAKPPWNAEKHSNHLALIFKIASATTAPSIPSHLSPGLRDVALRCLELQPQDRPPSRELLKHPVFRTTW", "assay": "Inhibition of wild-type human partial length MAP3K1 (L1202 to W1512 residues) expressed in mammalian expression system at 10 uM by Kinomescan method relative to control"}, "[18]": {"system": "Hepatocyte growth factor receptor (Homo sapiens), P08581 [M1250T]", "assay": "Inhibition of human partial length MET M1250T mutant (D1010 to S1367 residues) expressed in bacterial expression system at 10 uM by Kinomescan method relative to control"}, "[19]": {"target": "Myosin light chain kinase (Homo sapiens) (UniProt Q32MK0)", "sequence (Q32MK0 whole entry, the tested form may be a part)": "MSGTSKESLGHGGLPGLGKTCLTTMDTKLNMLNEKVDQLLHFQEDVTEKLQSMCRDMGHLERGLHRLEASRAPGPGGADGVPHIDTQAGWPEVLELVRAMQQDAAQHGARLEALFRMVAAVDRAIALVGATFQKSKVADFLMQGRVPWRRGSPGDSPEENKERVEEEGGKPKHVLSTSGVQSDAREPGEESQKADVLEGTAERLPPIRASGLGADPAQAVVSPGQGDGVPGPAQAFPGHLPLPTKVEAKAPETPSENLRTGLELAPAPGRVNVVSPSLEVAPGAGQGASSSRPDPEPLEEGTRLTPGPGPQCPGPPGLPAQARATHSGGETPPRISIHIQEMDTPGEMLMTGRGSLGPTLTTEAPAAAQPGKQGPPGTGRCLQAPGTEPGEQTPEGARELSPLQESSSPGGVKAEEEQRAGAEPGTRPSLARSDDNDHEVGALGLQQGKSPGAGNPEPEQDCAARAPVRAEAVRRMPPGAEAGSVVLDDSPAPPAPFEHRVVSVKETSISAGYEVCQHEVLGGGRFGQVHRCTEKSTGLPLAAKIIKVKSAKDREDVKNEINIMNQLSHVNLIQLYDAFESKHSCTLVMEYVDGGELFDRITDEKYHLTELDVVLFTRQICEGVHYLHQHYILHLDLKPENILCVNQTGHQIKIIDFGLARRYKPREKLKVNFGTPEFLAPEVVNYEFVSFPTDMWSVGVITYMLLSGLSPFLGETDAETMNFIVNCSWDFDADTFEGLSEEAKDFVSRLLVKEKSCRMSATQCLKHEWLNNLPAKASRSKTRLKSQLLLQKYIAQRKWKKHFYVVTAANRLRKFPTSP", "assay": "Inhibition of wild-type human partial length MLCK (D488 to K800 residues) expressed in bacterial expression system at 10 uM by Kinomescan method relative to control"}, "[20]": {"system": "Phosphatidylinositol 4,5-bisphosphate 3-kinase catalytic subunit alpha isoform (Homo sapiens), P42336 [E545A]", "assay": "Inhibition of human partial length PIK3CA E545A mutant (R108 to N1068 residues) expressed in mammalian expression system at 10 uM by Kinomescan method relative to control"}, "[21]": {"target": "Protein kinase C iota type (Homo sapiens) (UniProt P41743)", "assay": "Inhibition of wild-type human partial length PRKCI (H215 to V587 residues) expressed in mammalian expression system at 10 uM by Kinomescan method relative to control"}, "[22]": {"target": "Serine/threonine-protein kinase D3 (Homo sapiens) (UniProt O94806)", "assay": "Inhibition of wild-type human partial length PRKD3 (S543 to E863 residues) expressed in bacterial expression system at 10 uM by Kinomescan method relative to control"}, "[23]": {"target": "Receptor-interacting serine/threonine-protein kinase 4 (Homo sapiens) (UniProt P57078)", "assay": "Inhibition of wild-type human partial length RIPK4 (M1 to V303 residues) expressed in mammalian expression system at 10 uM by Kinomescan method relative to control"}, "[24]": {"target": "Ribosomal protein S6 kinase alpha-4 (Homo sapiens) (UniProt O75676)", "sequence (O75676 whole entry, looked up, the tested form may be a part)": "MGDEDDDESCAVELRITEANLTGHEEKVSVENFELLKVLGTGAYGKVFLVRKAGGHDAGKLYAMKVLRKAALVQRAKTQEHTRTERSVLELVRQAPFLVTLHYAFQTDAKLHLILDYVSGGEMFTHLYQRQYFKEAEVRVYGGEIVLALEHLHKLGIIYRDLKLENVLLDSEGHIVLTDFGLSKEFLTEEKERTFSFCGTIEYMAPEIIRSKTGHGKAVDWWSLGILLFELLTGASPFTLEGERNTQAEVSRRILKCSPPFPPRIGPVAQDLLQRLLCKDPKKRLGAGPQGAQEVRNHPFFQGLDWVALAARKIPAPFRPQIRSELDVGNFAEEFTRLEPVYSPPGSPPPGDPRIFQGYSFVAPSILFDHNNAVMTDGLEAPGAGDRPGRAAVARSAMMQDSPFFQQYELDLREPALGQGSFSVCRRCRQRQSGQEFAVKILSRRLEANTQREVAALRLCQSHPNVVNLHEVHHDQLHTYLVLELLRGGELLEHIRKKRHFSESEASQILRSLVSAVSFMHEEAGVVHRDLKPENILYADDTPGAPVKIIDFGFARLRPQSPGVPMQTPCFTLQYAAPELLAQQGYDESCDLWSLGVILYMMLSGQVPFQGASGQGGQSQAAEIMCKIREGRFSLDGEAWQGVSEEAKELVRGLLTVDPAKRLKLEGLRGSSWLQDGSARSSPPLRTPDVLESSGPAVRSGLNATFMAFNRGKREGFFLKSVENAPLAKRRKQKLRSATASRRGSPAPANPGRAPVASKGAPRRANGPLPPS", "assay": "Inhibition of wild-type human partial length N-terminal RPS6KA4 kinase domain 1 expressed in bacterial expression system at 10 uM by Kinomescan method relative to control"}, "[25]": {"target": "Tyrosine-protein kinase SYK (Homo sapiens) (UniProt P43405)", "assay": "Inhibition of wild-type human partial length SYK (D354 to N635 residues) expressed in bacterial expression system at 10 uM by Kinomescan method relative to control"}, "[26]": {"target": "Tyrosine-protein kinase ZAP-70 (Homo sapiens) (UniProt P43403)", "assay": "Inhibition of wild-type human partial length ZAP70 (D20 to G299 residues) expressed in mammalian expression system at 10 uM by Kinomescan method relative to control"}},
  "data": [
    {"compound": "O=C(Nc1cccc([C@@H]2CN(c3ncnc4[nH]ccc34)CCN2CCO)c1)Nc1c(F)cccc1N1CCCC1", "values": [
      {"measurement": "inhibition", "setting": "[1]", "result": 100, "unit": "%"},
      {"measurement": "inhibition", "setting": "[2]", "result": 83, "unit": "%"},
      {"measurement": "inhibition", "setting": "[3]", "result": 91, "unit": "%"},
      {"measurement": "inhibition", "setting": "[4]", "result": 100, "unit": "%"},
      {"measurement": "inhibition", "setting": "[5]", "result": 56, "unit": "%"},
      {"measurement": "inhibition", "setting": "[6]", "result": 84, "unit": "%"},
      {"measurement": "inhibition", "setting": "[7]", "result": 95, "unit": "%"},
      {"measurement": "inhibition", "setting": "[8]", "result": 98, "unit": "%"},
      {"measurement": "inhibition", "setting": "[9]", "result": 99, "unit": "%"}
    ]},
    {"compound": "O=C(Nc1cccc([C@H]2CCCN(c3ncnc4[nH]ccc34)C2)c1)Nc1ccccc1N1CCCC1", "values": [
      {"measurement": "inhibition", "setting": "[10]", "result": 56, "unit": "%"},
      {"measurement": "inhibition", "setting": "[11]", "result": 100, "unit": "%"},
      {"measurement": "inhibition", "setting": "[12]", "result": 6.6, "unit": "%"},
      {"measurement": "inhibition", "setting": "[13]", "result": 49, "unit": "%"},
      {"measurement": "inhibition", "setting": "[14]", "result": 4.1, "unit": "%"},
      {"measurement": "inhibition", "setting": "[15]", "result": 94, "unit": "%"},
      {"measurement": "inhibition", "setting": "[16]", "result": 96, "unit": "%"},
      {"measurement": "inhibition", "setting": "[17]", "result": 39, "unit": "%"},
      {"measurement": "inhibition", "setting": "[18]", "result": 97, "unit": "%"},
      {"measurement": "inhibition", "setting": "[19]", "result": 100, "unit": "%"},
      {"measurement": "inhibition", "setting": "[20]", "result": 58, "unit": "%"},
      {"measurement": "inhibition", "setting": "[21]", "result": 51, "unit": "%"},
      {"measurement": "inhibition", "setting": "[22]", "result": 100, "unit": "%"},
      {"measurement": "inhibition", "setting": "[23]", "result": 71, "unit": "%"},
      {"measurement": "inhibition", "setting": "[24]", "result": 77, "unit": "%"},
      {"measurement": "inhibition", "setting": "[25]", "result": 52, "unit": "%"},
      {"measurement": "inhibition", "setting": "[26]", "result": 75, "unit": "%"}
    ]}
  ]
}
